In patent US20070042947A1, “Agents for preventing and/or treating uppper digestive tract disorders” (Takeda Pharmaceutical Company Limited, priority 2003, published 2007):

Assays:
[1] = system: Wistar male rats; assay: Gastric acid secretion in anesthetized rat by intravenous injection of hNPW23 (stomach perfusion, NaOH titration); type: in vivo; conditions: 80 μM in saline, 1 ml/h for 30 minutes through the femoral vein; mean±SE, 8 rats; P 0.01 or less vs control
Procedure: After Wistar male rats (Nippon Charles River, weighing 320-360 g) were fasted for 16 hours with water given ad libitum, the animal was injected intraperitoneally with ethyl carbamate (Wako Pure Chemical) (1.0 g/ml/kg) and firmly secured to the operating table under anesthesia to perform laparotomy. Stomach catheter (Medtop X2-50, 3.5 mm in outer diameter and […] in inner diameter) was inserted into the stomach (2 cm) through an incision in the duodenum. After ligature at the pyloric canal, the right femoral vein was isolated to perform venous cannulation. The stomach was irrigated with distilled water (Otsuka Pharmaceutical Co., Ltd.) warmed at 37° C. and allowed to stand for about an hour. hNPW23 was dissolved in saline (Otsuka Pharmaceutical Co., Ltd.) to become 80 μM. The control group was given saline. […] Gastric acid output was determined as follows. […] After 30 μl of Bromthymol Blue indicator solution (BTB, Wako Pure Chemical) was added to each gastric juice collected, the mixture was titrated with 0.1N NaOH solution and the consumed amount of NaOH required to reach the equivalent point (the amount consumed) was determined to calculate the gastric acid output. The gastric acid output before administration of hNPW23 was measured and T-assay was conducted on a percentage (%) of changes in gastric acid outputs before and after administration. […]

[2] = system: pylorus ligated rats; assay: Amount of gastrin secretion (blood gastrin level, RIA) in pylorus ligated rats; type: in vivo, rat; conditions: 2 mg/kg (2000 μg/kg group) intraperitoneally; blood 3 hours after pylorus ligature; vs saline group, 8 rats
Procedure: After Wistar male rats (340-360 g) were fasted for 16 hours with water given ad libitum as in EXAMPLE 2 above, the animal was exposed at laparotomy under ether anesthesia and submitted to the pylorus ligature assay to close the abdomen. After hNPW23 was dissolved in saline (2 mg/ml), the solution was intraperitoneally injected (2 mg/kg). The control group was given saline. Test was performed with 8 rats in each group. Three hours after the pylorus ligature, the rat's abdomen was opened under anesthesia with Nembutal (40 mg/kg) and blood was collected through the abdominal aorta. The blood was placed in a blood tube of 7 ml (Terumo, containing EDTA), centrifuged (3000 rpm×10 min.) and stored at −40° C in lyophilized state until assay. Gastrin level in blood was assayed with Gastrin RIA KIT II (ABBOTT JAPAN). The F-assay was conducted on mean measurement values.

[3] = system: pylorus ligated rats; assay: Gastric fluid volume, pH, gastric acidity and acid output in pylorus ligated rats; type: in vivo, rat; conditions: 2 mg/kg intraperitoneally; 3 hours after pylorus ligature; mean ± SE, 8 rats
Procedure: After Wistar male rats (340-360 g) were fasted for 16 hours with water given ad libitum, the animal was exposed at laparotomy under ether anesthesia and submitted to the pylorus ligature assay to close the abdomen. After hNPW23 was dissolved in saline (2 mg/ml), the solution was intraperitoneally injected (2 mg/kg). The control group was given saline. Test was performed with 8 rats in each group. Three hours after the pylorus ligature, the rat's abdomen was opened under anesthesia with Nembutal (40 mg/kg, Dainippon Pharmaceutical). After ligation of the cardia, the stomach was removed. Gastric contents were collected and centrifuged (2500 rpm×10 min.). Using the supernatant, gastric fluid volume (ml), pH intragastric pH, gastric acidity (mEq/l) and total acid output (μEq/kg/h) were measured.
To 1 ml of gastric juice, 30 μl of BTB (Wako Pure Chemical) solution was added and […] NaOH solution was dropwise added to the mixture. The consumed amount of NaOH required to reach the equivalent point (pH 7.0) was measured to calculate the gastric acidity and total acid output.
The pH of gastric juice was measured using Twin pH meter B-212 (Horiba, Ltd.).
The respective measurements values were calculated according to the equation below and T-assay was conducted.
Gastric acidity (mEq/l)=0.2N NaOH×consumed amount (μl)/gastric juice (1000 μl)
Total acid output (μEq/kg/h)=gastric acidity x gastric fluid volume/weight/time

hNPW23: human GPR8 ligand peptide (hNPW23), amino acid sequence SEQ ID NO: 1; Neuropeptide W (WYKHVASPRYHTVGRAAGLLMGL; listed as Homo sapiens)
changes in gastric acid outputs (gastric acid output after administration / before administration x 100) [1]: 145.6±8.5% | gastrin level in blood [2]: increased significantly | Gastric acidity [3]: 96.0 ± 4.2 mEq/l | Gastric fluid volume [3]: 7.9 ± 1.2 mL | Intragastric pH [3]: 0.83 ± 0.03 | Total acid output [3]: 747.4 ± 121.5 μEq/kg/h
